Laboratory results: patent US8614254B2, “Methods and compositions for treating thalamocortical dysrhythmia” (New York University, priority 2007, dated 2013)

Legend:
[1] = system: thalamic neurons (low threshold spikes, low frequency oscillations); assay type: cell-based
[2] = system: low threshold activated Cav3 calcium currents (Cav3.1); test: Whole-cell voltage-clamp patch recording of low threshold activated calcium currents in ventrobasal thalamic neurons of brain slices; assay type: cell-based, rodents (Long-Evans rats, Harley guinea pigs); conditions: for Cav3 peak currents (I-V curve): FIG. 2B
[3] = system: thalamic neurons (low threshold spike); assay type: cell-based, mouse
[4] = system: thalamic neurons (high-frequency 40 Hz subthreshold oscillation); assay type: cell-based, mouse
EEG frequency profile = test: EEG recording with Fast Fourier transform frequency analysis in wild type and alpha-1A knockout mice; assay type: in vivo, mouse
Procedure: Alpha1A knockout mice, which have an enhanced Cav3 calcium channel activity, develop progressive neurological symptoms resembling Thalamo-cortical Dysrhythmia characterized specifically by ataxia and dystonia, before dying, around four weeks after birth (Jun et al. (1999) Proc. Natl. Acad. Sci. USA. 96(26):15245-50).
When a Fast Fourier transform analysis is performed in two segments of 1 second each (FIG. 7A, segments a and b) from the same wild type trace, a wide range of frequencies is observed. Importantly, the presence of high frequencies in the range of gamma band is observed (FIG. 7A, red arrows). In contrast, an alpha-1A knockout mouse presents a totally different EEG recoding.
The administration of 1-octanol (Sinton et al., (1989) Pflügers Archiv 414: 31-36) in wild types versus knockout mice allows the quantification of the effects of such a drug in the high and low frequencies in the EEG. Since knockout mice only present low frequencies, a dose-response curve of 1-octanol can be easily prepared. Also, an augmentation in the ratio of high/low frequencies is expected for the wild types treated with 1-octanol.
Analysis of the frequency components plotted in blue bars show a decrease in the low frequencies (0-15 Hz) and an increase in hi frequencies (30-45 Hz) consistent with the fact that Cav3 channels are responsible for low frequencies and their block produces an increase in high frequency.

[5] = system: high voltage activated calcium currents; test: Whole-cell voltage-clamp patch recording, slow component when low and high voltage activated calcium currents are open; assay type: cell-based, rodents (Long-Evans rats, Harley guinea pigs); conditions: 10 μM; −10 mV, both low and high voltage activated calcium currents open; FIG. 1B
[6] = 50 μM, wild-type mouse, TTX 2 μM
[7] = wild-type mice, i.p., 0.2 mg/kg, FIG. 7D

## CCCCCCC(C)O (centres unmarked) [2-octanol]
[1]; 10 μM, five min. of perfusion, FIG. 3A
  thalamic low frequency oscillatory activity (low threshold spikes firing at 2 Hz): complete abolishment
[1]; after 40 min. of washout
  reversibility of the abolishment of oscillatory activity: partially reversible
[1]; after TTX removal from the external solution, FIG. 5A and 5B
  low threshold spike: block
[1]; after TTX removal, after block of low threshold spike, increment in input resistance
  frequency of action potentials of the thalamic neurons: notably increased
[2]; 10 μM
  Cav3 peak currents (I-V curve): partially reduced
[2]; 100 μM
  Cav3 peak currents (I-V curve): almost abolished
[2]; 100 μM, voltage clamp, high Cs/QX314 intracellular solution
  low threshold activated Cav3 calcium currents: completely abolished
[2]; holding −70 mV, steps to −60, −30, −20 and −10 mV, FIG. 2A
  Cav3 calcium currents peak with increasing concentrations: progressive reduction

## CCCCCCCCO [octanol]
[3]; [6]
  rebound low threshold spike: abolished
[3]; alpha1A-KO mouse, TTX, FIG. 6B
  low threshold spike: blocked
[4]; [6]
  40 Hz oscillations on depolarizing square pulses: are observed
[4]; alpha1A-KO mouse, before or after application
  high-frequency 40 Hz oscillations: no high-frequency 40 Hz oscillations are present
[4]; summary of the examples
  high frequency oscillations in the thalamic neurons: does not appear to affect
EEG frequency profile; [7]
  EEG hi frequencies (30-45 Hz): increase
  EEG low frequencies (0-15 Hz): decrease
[2]; clinical concentrations at micromolar level, summary of the examples
  low threshold activated Cav3 calcium currents of neurons of the thalamic Ventrobasal nucleus: significantly reversibly block

## CCCCCCCCO [1-octanol]
EEG frequency profile; wild types treated, expected
  ratio of high/low frequencies in the EEG: augmentation
[5]
  slow component that remains open at the end of the depolarized pulse: leaving unchanged
[1]; 50 μM, FIG. 4A and 4B
  peak of low threshold spikes activated using ramps of current: further decreases
[1]; after blocking Cav3 calcium currents, same amplitude current pulse
  membrane resistance: increments
[1]; current clamp, FIG. 4A and 4B
  effect on the low threshold spikes: concentration-dependent
[2]; 10 μM, holding level −30 mV where only low voltage activated calcium currents can be open, FIG. 1A
  block of peak fast activated Cav3.1 calcium current (ICa) amplitude: about 30%
[2]; ventrobasal thalamic neurons, conclusion from FIG. 1A and 1B
  specificity of block of low threshold activated Cav3-type currents: specifically block
